Data published in patent US20130261133A1, “Therapeutic Compounds for Protozoal and Microbial Infections and Cancer” (THE UNIVERSITY OF MONTANA, priority 2012, published 2013).
In brackets after ≈: the same amount, converted by molar mass. Several values for one entry are separate records, joined by “and”; a condition that tells them apart may be missing. Equal entries are not always repeated. Where two headings read alike, the source gives them in different places.

Tests used:
[1] = test system: P. falciparum clone W2/Indochina; assay: In vitro malaria assay, [3H]-hypoxanthine incorporation; type: cell-based; details: Plasmodium falciparum, W2, 72 h, read-out: IC50 Plasmodium
Description: a. In vitro Parasite Culturing: P. falciparum clone W2/Indochina was grown in continuous culture using RPMI 1640 media containing 10% heat-inactivated type A+ human plasma, sodium bicarbonate (2.4 g/L), HEPES (5.94 g/L) and 4% washed human type A+ erythrocytes. Cultures were gassed with a 90% N2, 5% O2 and 5% CO2 mixture followed by incubation at 37° C. b. Assay Preparation: Test compounds at 5 mg/mL in DMSO were diluted 1:500 and then serially diluted in duplicate over 11 concentrations. P. falciparum cultures with >70% ring stage parasites were diluted to 0.5-0.7% parasitemia and 1.5% hematocrit in RPMI 1640 media. In 96-well plates a volume of 90 μl/well of parasitized erythrocytes was added on top of 10 μL/well of the test compound. A separate plate containing chloroquine, dihydroartemisinin and atovaquone was added to each set of assay plates as control drugs. A Beckman Coulter Biomek 3000 was used to dispense test compounds, control drugs and parasitized erythrocytes into the microtiter plates. Positive and negative controls were included in each plate. Positive controls consisted of parasitized erythrocytes and negative controls consisted of non-parasitized erythrocytes at 1.5% hematocrit in RPMI 1640 media. Assay plates were placed into a modulator incubator chamber and equilibrated with 90% N2, 5% O2 and 5% CO2 mixture then incubated at 37° C. for 48 hours. After 48 hours, approximately 0.05 μCi of [^3H]-hypoxanthine monohydrochloride was added to each well of the assay plates. Plates were put back into the modulator incubation chamber, gassed with the 90% N2, 5% O2 and 5% CO2 mixture then incubated at 37° C. for an additional 24 hours. After 72 hours total incubation time the plates were frozen at −80° C. until later processed for parasite growth determinations. c. Assay Plate Processing: Assay plates were harvested using a Perkin Elmer FilterMate Harvester. The incorporation of [^3H]-hypoxanthine into nucleic acid was measured using a Perkin Elmer Topcount NXT Microplate Scintillation & Luminescence Counter. d. Data Analysis: Data analysis was performed using a custom database manager (Dataspects, Inc). Nonlinear regression analysis was used to calculate EC50.

[2] = test system: Leishmania amazonensis; assay: Antileishmanial assay, Leishmania in infected macrophages (L. amazonensis); details: for IC50: Leishmania amazonensis, Macrophage
[3] = test system: Leishmania donovani in infected macrophages; details: Senn et al. 2007; read-out: IC50 against Leishmania donovani in infected macrophages; cited from earlier work
[4] = test system: C. albicans; assay: MIC broth microdilution, Alamar Blue; type: cell-based; details: minimum inhibitory concentration
[5] = test system: E. faecalis; assay: MIC broth microdilution, Alamar Blue; type: cell-based; details: minimum inhibitory concentration
[6] = test system: B. subtilis; assay: MIC broth microdilution, Alamar Blue; type: cell-based; details: minimum inhibitory concentration
[7] = test system: B. anthracis; type: cell-based; details: minimum inhibitory concentration
[8] = test system: S. pyogenes; assay: MIC broth microdilution, Alamar Blue; type: cell-based; details: minimum inhibitory concentration
[9] = test system: P. aeruginosa; assay: MIC broth microdilution, Alamar Blue; type: cell-based; details: minimum inhibitory concentration
[10] = test system: C. glabrata; assay: MIC broth microdilution, Alamar Blue; type: cell-based; details: minimum inhibitory concentration
[11] = test system: HepG2 cells; assay: Cytotoxicity against human liver (HepG2) cells, Alamar Blue; type: cell-based
Description: Several of these analogues were also evaluated for cytotoxicity against human liver (HepG2) cells. Of particular interest was that compounds 47 and 48 were approximately an order of magnitude less cytotoxic as compared to compound 1.
Adherent cell lines were maintained in Eagle's Minimal Essential Media (Sigma-Aldrich, St. Louis, Mo., USA) with 2 mM glutamine and Earle's Balanced Salt Solution (HyClone, Logan, Utah, USA) adjusted to contain 1.5 g/L sodium bicarbonate, 0.1 mM non-essential amino acids, 1 mM sodium pyruvate and 10% fetal calf serum. Fetal calf serum used in these assays was lot matched throughout. All cultures were maintained under a humidified 5% CO2 atmosphere at 37° C., had media refreshed twice weekly and were subcultured by trypsinization and resuspension at a ratio of 1:5 each week. Toxicity assays were conducted between passages 10-20. Target compound toxicity was measured by incubating the test compound with the cells for 4 hours, washing the cells and finally treating the cells with Alamar Blue. After 12-24 hours, the fluorescence of the reduced dye was measured. Fluorescence intensity as a function of test compound concentration was fit to the Fermi equation, using non-linear least squares regression analysis, to estimate IC50 values.

[12] = test system: S. aureus 13709; assay: MIC broth microdilution, Alamar Blue; type: cell-based; details: minimum inhibitory concentration
[13] = test system: leishmaniasis (LV82 PM infection), liver parasitemia; assay: In vivo efficacy: liver parasitemia in BALB/c mice with leishmaniasis; details: 10 mg/kg i.p.; for % Reduction (Average) in liver parasitemia: infected BALB/c mice
Description: The following protocols were used to prepare the various treatments described in Table 2: • a. Miltefosine ([…] stock solution in sterile PBS): 7.5 mg miltefosine was weighed and put in a eppendorf tube, then 0.75 mL of sterile PBS was added. After vortexing, a clear solution was formed. Make 1 mg/mL solution daily by diluting 100 μL of 10 mg/mL miltefosine solution in 900 μL sterile PBS. • b. Vehicle control: 5% (v/v) DMSO, 50% (v/v) PEG 400, 10% (v/v) Ethanol, and 35% (v/v) distilled water. • c. Compound 47 (2 mg/mL solution of compound 47 in PEG 400/Ethanol vehicle): […]. Dilute the above solution 1:20 with PEG 400/EtOH/water daily. After vortexing and warming up at 37° C. for 30 min., a clear solution formed. • d. Compound 48 (2 mg/mL solution of compound 48 in PEG 400/Ethanol vehicle): 6.8 mg of compound 48 was dissolved in 0.17 mL of DMSO to make a 40 mg/mL stock solution. After vortexing, a yellowish-brown solution was formed. Diluted the above solution 1:20 with PEG 400/EtOH/water daily. After vortexing a clear solution formed. • e. Compound 50 (2 mg/mL solution of compound 50 in PEG 400/Ethanol vehicle): 8.4 mg of compound 50 was dissolved in 0.21 mL of DMSO to make a 40 mg/mL stock solution. After vortexing, a dark yellowish-brown solution was formed. Diluted the above solution 1:20 with PEG 400/EtOH/water. After vortexing a clear solution formed.
(§1) Compounds 47, 48, and 50 were then evaluated in animal studies with BALB/c mice with leishmaniasis. Compounds were delivered via i.p. injection at 10 mg/kg, with untreated, vehicle, and miltefosine controls as described in Table 2. […] Miltefosine, the only oral treatment currently available to treat leishmaniasis in humans, was also evaluated in the BALB/c mice for comparison purposes.

[14] = test system: Leishmania donovani; assay: Antileishmanial assay, Leishmania in infected macrophages (L. donovani); details: for IC50: Leishmania donovani, Macrophage
[15] = Body and organ weights of infected, treated BALB/c mice; type: in vivo
Description: as §1

[16] = read-out: IC50 Leishmania in infected macrophages
[17] = read-out: IC50 against Leishmania amazonensis
[18] = HepG2, read-out: IC50 against the HepG2 cell line
[19] = HepG2, read-out: IC50 mammalian HepG2 cells

Row | SMILES | IC50 [1] | IC50 [2, 16] | IC50 [2, 17] | MIC C. albicans [4] | MIC E. faecalis [5] | MIC B. subtilis [6] | MIC B. anthracis [7] | MIC S. pyogenes [8] | MIC P. aeruginosa [9] | MIC C. glabrata [10] | IC50 [11, 18] | IC50 [11, 19] | MIC S. aureus [12] | other results
1 | C=CC(C#CC#CC(O)CCCCCCCCC)OC(C)=O [(S,S)-1, 8-hydroxyheptadeca-1-ene-4,6-diyn-3-yl acetate, reference compound] | 0.27 µg/mL | 1280 nM | 1280 nM | – | – | – | – | – | – | – | – | – | – | IC50 [3]: 320 nM
2 | C=C[C@@H](C#CC#C[C@H](O)CCCCCCCCC)OC(C)=O [Compound 1, (3S,8R)-8-hydroxyheptadeca-1-en-4,6-diyn-3-yl acetate] | 0.341 µg/mL | 626 nM | 630 nM | >1000 | 32 | 8 | 4 | 8 | >1000 | >1000 | 35000 ± 3000 nM | 35000 ± 3000 nM | >1000 | Selectivity Index ([2]; IC50 for HepG2 cells/IC50 for Leishmania amazonensis): 60
3 | C=C[C@H](O)C#CC#C[C@H](O)CCCCCCCCC [Compound 50, (3S,8R)-heptadeca-1-en-4,6-diyne-3,8-diol] | 0.271 µg/mL (≈ 1.03 µM) | – | – | 16 | 16 | 2 | 1000 | 8 | 4 | 8 | 38000 ± 2000 nM | 38000 ± 2000 nM | 16 | LDU mean ± SD ([13]; group mean, n=4): 2367.2; % Reduction (Average) in liver parasitemia [13]: 41.2%; % Reduction (Average) in liver parasitemia ([13]; listed as compound 50): 41%; # of amastigotes per 200 nuclei ([13]; liver, individual mice): 628 and 557 and 643 and 612; LDU ([13]; total liver parasitemia, individual mice): 2737.5 and 2143.9 and 2654.9 and 1932.7; Selectivity Index ([14]; IC50 for HepG2 cells/IC50 for Leishmania donovani): 2900; IC50 [14, 16]: 13 nM; IC50 ([14]; read-out: IC50 anti-Leishmanial): 13 nM; Body weight ([15]; 10 mg/kg i.p., individual mice, Table 4): 15.7 g and 14.6 g and 14.1 g and 13.4 g; Mean body weight of mice Post-treatment ([15]; post-treatment, 10 mg/kg i.p., group mean): 14.5 g; Mean body weight of mice Pre-treatment ([15]; pre-treatment (baseline), group mean): 16.3 g
